In ChEMBL document CHEMBL5303573, “Mapping human microbiome drug metabolism by gut bacteria and their genes” (Nature, 2019):

Assays:
[1] = bacteroides fragilis, 12 h, 2 µM
Description: The drug is tested on Bacteroides fragilis strain: 3397 (T10) for biotransformation. The drug concentrations were measured before and after a 12-h incubation by liquid-chromatography-coupled mass spectrometry (LC–MS)

[2] = The drug is tested on Bacteroides fragilis strain: ATCC43859 for biotransformation. The drug concentrations were measured before and after a 12-h incubation by liquid-chromatography-coupled mass spectrometry (LC–MS); settings: 2 µM
[3] = bacteroides thetaiotaomicron, 12 h, 2 µM
Description: The drug is tested on Bacteroides thetaiotaomicron strain: 3731 for biotransformation. The drug concentrations were measured before and after a 12-h incubation by liquid-chromatography-coupled mass spectrometry (LC–MS)

[4] = The drug is tested on Collinsella aerofaciens strain: ATCC25986 for biotransformation. The drug concentrations were measured before and after a 12-h incubation by liquid-chromatography-coupled mass spectrometry (LC–MS); settings: 2 µM
[5] = The drug is tested on Bacteroides sp. WH2 strain: WH2 for biotransformation. The drug concentrations were measured before and after a 12-h incubation by liquid-chromatography-coupled mass spectrometry (LC–MS); settings: bacteroides sp. wh2, 12 h, 2 µM
[6] = parabacteroides johnsonii, 12 h, 2 µM
Description: The drug is tested on Parabacteroides johnsonii strain: DSM18315 for biotransformation. The drug concentrations were measured before and after a 12-h incubation by liquid-chromatography-coupled mass spectrometry (LC–MS)

[7] = The drug is tested on Collinsella intestinalis strain: DSM13280 for biotransformation. The drug concentrations were measured before and after a 12-h incubation by liquid-chromatography-coupled mass spectrometry (LC–MS); settings: 2 µM
[8] = The drug is tested on Odoribacter splanchnicus strain: fecal isolate for biotransformation. The drug concentrations were measured before and after a 12-h incubation by liquid-chromatography-coupled mass spectrometry (LC–MS); settings: 2 µM
[9] = The drug is tested on Bacteroides ovatus strain: ATCC8483 for biotransformation. The drug concentrations were measured before and after a 12-h incubation by liquid-chromatography-coupled mass spectrometry (LC–MS); settings: 2 µM
[10] = The drug is tested on Clostridium sporogenes strain: ATCC15579 for biotransformation. The drug concentrations were measured before and after a 12-h incubation by liquid-chromatography-coupled mass spectrometry (LC–MS); settings: 2 µM
[11] = bacteroides thetaiotaomicron, 12 h, 2 µM; remark: listed apart in the source
Description: The drug is tested on Bacteroides thetaiotaomicron strain: VPI-5482 for biotransformation. The drug concentrations were measured before and after a 12-h incubation by liquid-chromatography-coupled mass spectrometry (LC–MS)

[12] = The drug is tested on Dorea formicigenerans strain: ATCC27755 for biotransformation. The drug concentrations were measured before and after a 12-h incubation by liquid-chromatography-coupled mass spectrometry (LC–MS); settings: 2 µM
[13] = The drug is tested on Eubacterium rectale strain: ATCC33656 for biotransformation. The drug concentrations were measured before and after a 12-h incubation by liquid-chromatography-coupled mass spectrometry (LC–MS); settings: agathobacter rectalis, 2 µM
[14] = The drug is tested on Providencia rettgeri strain: DSM1131 for biotransformation. The drug concentrations were measured before and after a 12-h incubation by liquid-chromatography-coupled mass spectrometry (LC–MS); type: ADME; set-up: dose 2 uM, timepoint 0 vs 12 hours; settings: 2 µM
[15] = The drug is tested on Bacteroides xylanisolvens strain: DSM18836 for biotransformation. The drug concentrations were measured before and after a 12-h incubation by liquid-chromatography-coupled mass spectrometry (LC–MS); settings: 2 µM
[16] = The drug is tested on Bacteroides coprophilus strain: DSM18228 for biotransformation. The drug concentrations were measured before and after a 12-h incubation by liquid-chromatography-coupled mass spectrometry (LC–MS); settings: 2 µM
[17] = The drug is tested on Providencia stuartii strain: ATCC25827 for biotransformation. The drug concentrations were measured before and after a 12-h incubation by liquid-chromatography-coupled mass spectrometry (LC–MS); settings: 2 µM
[18] = akkermansia muciniphila, 12 h, 2 µM
Description: The drug is tested on Akkermansia muciniphila strain: ATCC BAA-835 for biotransformation. The drug concentrations were measured before and after a 12-h incubation by liquid-chromatography-coupled mass spectrometry (LC–MS)

[19] = The drug is tested on Bacteroides fragilis strain: HMW615 for biotransformation. The drug concentrations were measured before and after a 12-h incubation by liquid-chromatography-coupled mass spectrometry (LC–MS); settings: 2 µM

Structure (SMILES): CN[C@H]1CC[C@@H](c2ccc(Cl)c(Cl)c2)c2ccccc21 [SERTRALINE]
- Bacterial Biotransformation [1]: Compound NOT metabolized
- Bacterial Biotransformation [2]: Compound NOT metabolized
- Bacterial Biotransformation [3]: Compound NOT metabolized
- Bacterial Biotransformation [4]: Compound NOT metabolized
- Bacterial Biotransformation [5]: Compound NOT metabolized
- Bacterial Biotransformation [6]: Compound NOT metabolized
- Bacterial Biotransformation [7]: Compound NOT metabolized
- Bacterial Biotransformation [8]: Compound NOT metabolized
- Bacterial Biotransformation [9]: Compound NOT metabolized
- Bacterial Biotransformation [10]: Compound NOT metabolized
- Bacterial Biotransformation [11]: Compound NOT metabolized
- Bacterial Biotransformation [12]: Compound NOT metabolized
- Bacterial Biotransformation [13]: Compound NOT metabolized
- Bacterial Biotransformation [14]: Compound NOT metabolized

Structure (SMILES): O=P(O)(O)O.c1ccc(CN(CC2=NCCN2)c2ccccc2)cc1 [ANTAZOLINE PHOSPHATE]
- Bacterial Biotransformation [1]: Compound NOT metabolized
- Bacterial Biotransformation [2]: Compound NOT metabolized
- Bacterial Biotransformation [4]: Compound NOT metabolized
- Bacterial Biotransformation [15]: Compound NOT metabolized
- Bacterial Biotransformation [5]: Compound NOT metabolized
- Bacterial Biotransformation [7]: Compound NOT metabolized
- Bacterial Biotransformation [16]: Compound NOT metabolized
- Bacterial Biotransformation [9]: Compound NOT metabolized
- Bacterial Biotransformation [17]: Compound NOT metabolized
- Bacterial Biotransformation [18]: Compound NOT metabolized
- Bacterial Biotransformation [10]: Compound NOT metabolized
- Bacterial Biotransformation [11]: Compound NOT metabolized
- Bacterial Biotransformation [12]: Compound NOT metabolized
- Bacterial Biotransformation [13]: Compound NOT metabolized
- Bacterial Biotransformation [14]: Compound NOT metabolized

Structure (SMILES): N#Cc1ccc2c(c1)N(CCCN1CCC(O)CC1)c1ccccc1S2 [PERICIAZINE]
- Bacterial Biotransformation [1]: Compound metabolized
- Bacterial Biotransformation [3]: Compound metabolized
- Bacterial Biotransformation [4]: Compound NOT metabolized
- Bacterial Biotransformation [5]: Compound NOT metabolized
- Bacterial Biotransformation [6]: Compound metabolized
- Bacterial Biotransformation [7]: Compound NOT metabolized
- Bacterial Biotransformation [9]: Compound NOT metabolized
- Bacterial Biotransformation [18]: Compound NOT metabolized
- Bacterial Biotransformation [10]: Compound NOT metabolized
- Bacterial Biotransformation [12]: Compound NOT metabolized
- Bacterial Biotransformation [13]: Compound NOT metabolized
- Bacterial Biotransformation [19]: Compound NOT metabolized
- Bacterial Biotransformation [14]: Compound NOT metabolized

Structure (SMILES): Nc1c2c(nc3ccccc13)CCCC2 [TACRINE]
- Bacterial Biotransformation [3]: Compound NOT metabolized
- Bacterial Biotransformation [4]: Compound NOT metabolized
- Bacterial Biotransformation [15]: Compound NOT metabolized
- Bacterial Biotransformation [5]: Compound NOT metabolized
- Bacterial Biotransformation [7]: Compound NOT metabolized
- Bacterial Biotransformation [17]: Compound NOT metabolized
- Bacterial Biotransformation [10]: Compound NOT metabolized
- Bacterial Biotransformation [11]: Compound NOT metabolized
- Bacterial Biotransformation [12]: Compound NOT metabolized
- Bacterial Biotransformation [13]: Compound NOT metabolized
- Bacterial Biotransformation [19]: Compound NOT metabolized

Structure (SMILES): CN1CC(=O)N2[C@H](c3ccc4c(c3)OCO4)c3[nH]c4ccccc4c3C[C@@H]2C1=O
- Bacterial Biotransformation [1]: Compound NOT metabolized
- Bacterial Biotransformation [3]: Compound metabolized
- Bacterial Biotransformation [4]: Compound NOT metabolized
- Bacterial Biotransformation [5]: Compound NOT metabolized
- Bacterial Biotransformation [7]: Compound NOT metabolized
- Bacterial Biotransformation [16]: Compound NOT metabolized
- Bacterial Biotransformation [9]: Compound metabolized
- Bacterial Biotransformation [18]: Compound NOT metabolized
- Bacterial Biotransformation [12]: Compound NOT metabolized
- Bacterial Biotransformation [13]: Compound NOT metabolized
- Bacterial Biotransformation [19]: Compound metabolized
- Bacterial Biotransformation [14]: Compound NOT metabolized

Structure (SMILES): CCN(CC)CCNC(C(=O)OCCC(C)C)c1ccccc1.Cl.Cl (configuration not stated)
- Bacterial Biotransformation [4]: Compound NOT metabolized
- Bacterial Biotransformation [15]: Compound NOT metabolized
- Bacterial Biotransformation [5]: Compound NOT metabolized
- Bacterial Biotransformation [7]: Compound NOT metabolized
- Bacterial Biotransformation [16]: Compound NOT metabolized
- Bacterial Biotransformation [8]: Compound NOT metabolized
- Bacterial Biotransformation [9]: Compound NOT metabolized
- Bacterial Biotransformation [17]: Compound NOT metabolized
- Bacterial Biotransformation [18]: Compound NOT metabolized
- Bacterial Biotransformation [10]: Compound NOT metabolized
- Bacterial Biotransformation [11]: Compound NOT metabolized
- Bacterial Biotransformation [12]: Compound NOT metabolized
- Bacterial Biotransformation [19]: Compound NOT metabolized
- Bacterial Biotransformation [14]: Compound NOT metabolized

Structure (SMILES): CNS(=O)(=O)Cc1ccc2[nH]cc(CCN(C)C)c2c1.O=C(O)CCC(=O)O [SUMATRIPTAN SUCCINATE]
- Bacterial Biotransformation [4]: Compound NOT metabolized
- Bacterial Biotransformation [15]: Compound NOT metabolized
- Bacterial Biotransformation [5]: Compound NOT metabolized
- Bacterial Biotransformation [6]: Compound NOT metabolized
- Bacterial Biotransformation [7]: Compound NOT metabolized
- Bacterial Biotransformation [8]: Compound NOT metabolized
- Bacterial Biotransformation [17]: Compound NOT metabolized
- Bacterial Biotransformation [18]: Compound NOT metabolized
- Bacterial Biotransformation [10]: Compound NOT metabolized
- Bacterial Biotransformation [11]: Compound metabolized
- Bacterial Biotransformation [12]: Compound NOT metabolized
- Bacterial Biotransformation [13]: Compound NOT metabolized
- Bacterial Biotransformation [14]: Compound NOT metabolized

Structure (SMILES): CCN1CCCC1CNC(=O)c1cc(S(N)(=O)=O)ccc1OC (configuration not stated) [SULPIRIDE]
- Bacterial Biotransformation [4]: Compound NOT metabolized
- Bacterial Biotransformation [15]: Compound NOT metabolized
- Bacterial Biotransformation [5]: Compound NOT metabolized
- Bacterial Biotransformation [6]: Compound NOT metabolized
- Bacterial Biotransformation [7]: Compound NOT metabolized
- Bacterial Biotransformation [9]: Compound NOT metabolized
- Bacterial Biotransformation [17]: Compound NOT metabolized
- Bacterial Biotransformation [18]: Compound NOT metabolized
- Bacterial Biotransformation [10]: Compound NOT metabolized
- Bacterial Biotransformation [12]: Compound NOT metabolized
- Bacterial Biotransformation [13]: Compound NOT metabolized
- Bacterial Biotransformation [14]: Compound NOT metabolized

Structure (SMILES): O=C(CCCN1CCC2(CC1)C(=O)NCN2c1ccccc1)c1ccc(F)cc1 [SPIPERONE]
- Bacterial Biotransformation [1]: Compound NOT metabolized
- Bacterial Biotransformation [2]: Compound NOT metabolized
- Bacterial Biotransformation [3]: Compound NOT metabolized
- Bacterial Biotransformation [4]: Compound NOT metabolized
- Bacterial Biotransformation [15]: Compound NOT metabolized
- Bacterial Biotransformation [5]: Compound NOT metabolized
- Bacterial Biotransformation [7]: Compound NOT metabolized
- Bacterial Biotransformation [16]: Compound NOT metabolized
- Bacterial Biotransformation [9]: Compound NOT metabolized
- Bacterial Biotransformation [18]: Compound NOT metabolized
- Bacterial Biotransformation [11]: Compound NOT metabolized
- Bacterial Biotransformation [12]: Compound NOT metabolized
- Bacterial Biotransformation [19]: Compound NOT metabolized

Structure (SMILES): Cc1cn([C@H]2C[C@H](N=[N+]=[N-])[C@@H](CO)O2)c(=O)[nH]c1=O [ZIDOVUDINE]
- Bacterial Biotransformation [1]: Compound metabolized
- Bacterial Biotransformation [3]: Compound NOT metabolized
- Bacterial Biotransformation [15]: Compound metabolized
- Bacterial Biotransformation [5]: Compound NOT metabolized
- Bacterial Biotransformation [6]: Compound metabolized
- Bacterial Biotransformation [16]: Compound NOT metabolized
- Bacterial Biotransformation [8]: Compound NOT metabolized
- Bacterial Biotransformation [9]: Compound NOT metabolized
- Bacterial Biotransformation [17]: Compound NOT metabolized
- Bacterial Biotransformation [18]: Compound NOT metabolized
- Bacterial Biotransformation [10]: Compound metabolized
- Bacterial Biotransformation [11]: Compound NOT metabolized
- Bacterial Biotransformation [13]: Compound NOT metabolized
- Bacterial Biotransformation [19]: Compound NOT metabolized
- Bacterial Biotransformation [14]: Compound NOT metabolized

Structure (SMILES): Br.CN1CCC[C@@H]1Cc1c[nH]c2ccc(CCS(=O)(=O)c3ccccc3)cc12 [ELETRIPTAN HYDROBROMIDE]
- Bacterial Biotransformation [1]: Compound NOT metabolized
- Bacterial Biotransformation [2]: Compound NOT metabolized
- Bacterial Biotransformation [4]: Compound NOT metabolized
- Bacterial Biotransformation [15]: Compound NOT metabolized
- Bacterial Biotransformation [5]: Compound NOT metabolized
- Bacterial Biotransformation [7]: Compound NOT metabolized
- Bacterial Biotransformation [16]: Compound NOT metabolized
- Bacterial Biotransformation [8]: Compound NOT metabolized
- Bacterial Biotransformation [9]: Compound NOT metabolized
- Bacterial Biotransformation [17]: Compound NOT metabolized
- Bacterial Biotransformation [18]: Compound NOT metabolized
- Bacterial Biotransformation [10]: Compound NOT metabolized
- Bacterial Biotransformation [12]: Compound NOT metabolized
- Bacterial Biotransformation [13]: Compound NOT metabolized
- Bacterial Biotransformation [14]: Compound NOT metabolized
